As a reminder, the IC50 is the concentration needed to halve the response being measured. A low value points to greater potency in that assay.

Test [1] deals with AI-2 production by HEK-293AI2 cells expressing MTAN and LuxS. Description: HEK-293AI2 / V. harveyi (MM32) AI-2 detection platform (AI-2 production by engineered human cells). The test is classed as cell-based, human cells; MTAN and LuxS derived from E. coli. The following applies: Homo sapiens, 24 h, HEK-293AI2 cells exposed 24 h; AI-2 in supernatant read by V. harveyi MM32 bioluminescence. The procedure:
LuxS (MF688636) and MTAN (MF688635) transgenes derived from E. coli were codon-optimized for stable expression in mammalian cells. For the generation of double stable HEK-293-derived cell line HEK-293AI2 transgenic for simultaneous constitutive PhEFIα-driven MTAN and PhCMV-driven LuxS-eYFP expression, 250,000 cells were first transfected with 2000 ng of pFS168 (PhEFIα-MTAN-pA) and selected in culture medium containing 20 μg/ml blasticidin (cat. no. ant-bl-1; InvivoGen, San Diego, CA, USA) for two weeks. […] After 17 days of selection in medium containing 200 μg/ml (w/v) zeocin (cat. no. ant-zn-1; Invivogen, San Diego, CA, USA) and 20 μg/ml blasticidin, resistant monoclonal cells (HEK-293sFS26cx) were obtained by limiting dilution cloning and screened for AI-2 activity in their supernatants. […] The cell line was regularly tested for the absence of mycoplasma.
20 μl of HEK-293AI2 cells (10^4 cells per well) were resuspended in 20 μl Dulbecco's modified Eagle's medium (DMEM; Thermo Fisher, Basel, Switzerland, low glucose, without phenol red, cat. no. 11880–028) supplemented with 4 mM L-glutamine (Thermo Fisher, Basel, Switzerland, cat. no. 25030-024), 30 μg/ml kanamycin and 1% FCS and seeded into a poly-L-lysine-coated Black Greiner clear-bottom 384-well plate (cat. no. 3845; Corning, New York, USA) using a Multidrop Combi Reagent Dispenser (cat. no. 5840300; Thermo Fisher, Basel, Switzerland). Cells were incubated for 20 h and then 20 nL of individual compounds (stock solution in 5 mM in DMSO) or controls (stock solutions of novobiocin, 10 mM in DMSO; staurosporin, 20 mM in DMSO) were transferred with Echo 550 liquid handler (Labcyte, San Jose, CA, USA) into the plate.
Compound-treated cells were cultivated for 24 hours and the cell culture supernatants (10 μl) were transferred to dry black polystyrene 384-well plates (Corning, New York, USA, cat. no. 3571). The AI-2 activity was quantified by adding 40 μl per 384-well of V. harveyi MM32 AI-2 reporter strain, diluted 1:500 in AB-Medium from a stationary overnight culture grown in Luria Marine (LM)-medium containing 20 g of NaCl, 10 g of Bacto Tryptone (Difco Laboratories), and 5 g of yeast extract (BBL) ([25]). Plates were sealed with BREATHseal™ (cat. no. 7.676 050; Greiner Bio-One, Frickenhausen, Germany) and incubated for 4 h at 30°C and 200 rpm on a Multitron Pro shaker (Infors, Bottmingen, Switzerland). Bioluminescence was measured on an Envision 2104 Multilabel plate reader (Perkin Elmer, Waltham, USA) with 1 s integration time. […] The initial hit inclusion criteria were a toxicity score of less than 50% and an AI-2 activity reduction below the average of all compound activity three times the standard deviation (-49.39% of activity).
Figure 2. Cell-based primary screen for AI-2 biosynthesis inhibitors. (A) Detailed assay protocol of the primary screen using engineered mammalian cells to identify inhibitors of quorum sensing. […] Aliquots of 10 μl of culture supernatants were transferred to black-bottomed assay plates and mixed with 40 μl of V. harveyi MM32 (AI-2 biosensor). AI-2-induced bioluminescence was measured 4 h later and normalized against the controls. In a secondary screen, the dose-response relationships of hit compounds are analyzed. To simultaneously assess effects on cell viability, compound-treated cells were supplemented with PrestoBlue and incubated for 1 h prior to resorufin fluorescence quantification. (B) Z’-evaluation of the AI-2 inhibitor assay.

Test [2] deals with MRSA ATCC 43300. The test can be described thus: AI-2 activity of MRSA ATCC 43300. It counts as cell-based, Staphylococcus aureus. The following applies: MRSA ATCC 43300, 3 h, different 5-FU concentrations. How it is done:
To confirm that the phenotype could be restored, 1 μM synthetic (S)-4,5-dihydroxy-2,3-pentanedione (DPD) (Biosynth Carbosynth, Staad, Switzerland) was used. After 3 h under static conditions at 37°C, the supernatant was analysed for AI-2 activity with V. harveyi (MM32).
Figure 4. Bioactivity of 5-FU against MRSA ATCC 43300. (A) Quorum sensing-associated AI-2 activity of MRSA 43300 grown for 3 h with different 5-FU concentrations. (B) Effect of different 5-FU concentrations on MRSA 43300 growth. (C) Interference with biofilm formation. (D) Effect on adherent MRSA 43300. Data points represent three biological replicates expressed as mean ± SD (**P < 0.01; ***P < 0.001; ****P < 0.0001).
Figure 5. Phenotype restoration with synthetic AI-2 supplementation. AI-2 activity of MRSA ATCC 43300 was evaluated with and without 1 μM DPD in the presence of different 5-FU concentrations. The dashed line indicates the baseline level of AI-2 of MRSA ATCC 43300 in the absence of 5-FU. Values represent 3 biological replicates expressed as mean ± SD (**P < 0.01; ****P < 0.0001).

As for `O=c1[nH]cc(F)c(=O)[nH]1` [5-Fluorouracil], the half-maximal inhibitory concentration (IC50) in test [1] turned out to be 460 nM. The “AI-2 production and quorum-sensing capacity of MRSA” value in test [2] is reported as “dose-dependently reduced”.

Values taken from publication PMC8287944, “5-Fluorouracil blocks quorum-sensing of biofilm-embedded methicillin-resistant Staphylococcus aureus in mice” (Nucleic Acids Research, 2021).
